Assay results taken from PubChem BioAssay (NCI).
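Following 48 hours of exposure in 96-well plates, responses at five concentrations were used to interpolate endpoints linearly. TGI: total growth inhibition.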

Each molecule was assayed on MDA-N (assay: NCI anticancer screen, dose series, 48 h).

Compared with CC1=CCC(C(C)(C)NC(=O)c2ccccc2)C/C1=N/O (stereo unspecified), Cc1ccc(S(=O)(=O)N2CCNCCN(S(=O)(=O)c3ccc(C)cc3)CCNCC2)cc1 is lower in TGI: over 100 µM for the first, 40.9 µM for the second.

CCSC1=N/C(=C\c2ccco2)C(=O)N1 and COc1cc(C2c3cc4c(cc3C(=O)C3CCC(=O)N32)OCO4)cc(OC)c1O (stereo unspecified) cannot be ordered by TGI: over 100 µM for the first, over 50 µM for the second.

COc1ccc(-c2nc(Nc3ccccc3)sc2Cc2sc(Nc3ccccc3)nc2-c2ccc(OC)cc2)cc1 and Cc1cn(C2CC(N=[N+]=[N-])C(COP(=O)(O)OCC3OC(n4cc(F)c(=O)[nH]c4=O)CC3O)O2)c(=O)[nH]c1=O (stereo unspecified) cannot be ordered by TGI: over 100 µM for the first, over 100 µM for the second.

Each molecule was assayed on UACC-62 melanoma (assay: NCI anticancer screen, dose series, 48 h).

Going from C=C1C(=O)O[C@H]2C1C[C@H](O)[C@@]1(C)OC1CC[C@@]1(C)O[C@H]21 (stereo partly specified) to CC(=O)[C@H]1[C@H](O)C[C@@]2(C)[C@@H]3CCc4cc(O)c(OC5OC(CO)C(O)C(O)C5O)cc4C3(C)C(=O)C[C@]12C (stereo partly specified), the TGI rises from 28.2 µM to over 100 µM.

First: O=C(NCCNCCNC(=O)c1cc(-c2ccccc2)nc2ccccc12)c1cc(-c2ccccc2)nc2ccccc12
Second: COc1ccc(-c2nc(Nc3ccccc3)sc2Cc2sc(Nc3ccccc3)nc2-c2ccc(OC)cc2)cc1
The TGI of the first is lower: 5.77 µM for the first, over 100 µM for the second.

COc1cc([C@@H]2c3cc4c(cc3[C@@H](Nc3ccc(Cl)cc3C(=O)c3ccccc3)[C@H]3COC(=O)[C@H]23)OCO4)cc(OC)c1OC and COc1cc(C2c3cc4c(cc3C(=O)C3CCC(=O)N32)OCO4)cc(OC)c1O (stereo unspecified) cannot be ordered by TGI: over 100 µM for the first, over 50 µM for the second.

Cc1cc(O)c(/C=N/C(=S)Nc2ccc(S(N)(=O)=O)cc2)c(=O)o1 and Cc1cc(NS(=O)(=O)c2ccc(N=[N+]([O-])c3ccc(S(=O)(=O)Nc4cc(C)on4)cc3)cc2)no1 cannot be ordered by TGI: over 100 µM for the first, over 100 µM for the second.

CCOC(=O)c1nc2ccc(C(F)(F)F)cc2nc1Nc1ccc(OC)cc1 and COc1ccc(-c2nc(-c3cnccn3)n(C3OC(CO)C(O)C3O)n2)cc1 (stereo unspecified) cannot be ordered by TGI: over 100 µM for the first, over 10 µM for the second.

Cn1nnc2c3c(N(CCO)CCO)ccnc3ccc21 and CCCc1nc2c(n1CC)C(=O)c1ccccc1C2=O cannot be ordered by TGI: over 100 µM for the first, over 100 µM for the second.

Going from Cc1ccc(S(=O)(=O)N2CCSCCSCCSCCN(S(=O)(=O)c3ccc(C)cc3)CC2)cc1 to Cc1ccc(S(=O)(=O)N2CCNCCN(S(=O)(=O)c3ccc(C)cc3)CCNCC2)cc1, the TGI falls from over 100 µM to 34.5 µM.

CC(C)(O)c1cc2c(cc1C(C)(C)O)-c1ccccc1-2 and CC1=CCC(C(C)(C)NC(=O)c2ccccc2)C/C1=N/O (stereo unspecified) cannot be ordered by TGI: over 100 µM for the first, over 100 µM for the second.

CC(Oc1ccc(Cl)cc1Cl)C(=O)NN1C(=O)CC(=O)N(c2ccccc2)C1=S (stereo unspecified) and COC(=O)C(=O)C(C(=O)C(=O)Nc1ccc(C)cc1C)c1nc2ccc(Cl)cc2[nH]c1=O (stereo unspecified) cannot be ordered by TGI: over 100 µM for the first, over 100 µM for the second.

Compared with O=C(NCCN1CCCCC1)c1cccc(I)c1, CC(=O)/C(=C\I)c1ccccc1 is lower in TGI: over 100 µM for the first, 3.96 µM for the second.

COC(=O)[C@@](NC(=O)OCc1ccccc1)([C@H](C)O)C(F)(F)F and CCSC1=N/C(=C\c2ccco2)C(=O)N1 cannot be ordered by TGI: over 100 µM for the first, over 100 µM for the second.

CCOC(=O)c1c[nH]c(C(=O)C=[N+]=[N-])c1C1CCN(CC)C1=S (stereo unspecified) and Cc1cn(C2CC(N=[N+]=[N-])C(COP(=O)(O)OCC3OC(n4cc(F)c(=O)[nH]c4=O)CC3O)O2)c(=O)[nH]c1=O (stereo unspecified) cannot be ordered by TGI: over 100 µM for the first, over 100 µM for the second.

First: COC(=O)/C=C(\C)CCC1SC1(C)C (stereo unspecified)
Second: Cc1ccc(S(=O)(=O)N/N=C2/CCC3(O)CC2(C)CCC2[C@H]3CC2(C)C)cc1 (stereo partly specified)
The TGI of the first is higher: over 100 µM for the first, 60 µM for the second.

Each molecule was assayed on HL-60(TB) leukemia (assay: NCI anticancer screen, dose series, 48 h).

First: O=C(NCCNCCNC(=O)c1cc(-c2ccccc2)nc2ccccc12)c1cc(-c2ccccc2)nc2ccccc12
Second: COc1ccc(-c2nc(Nc3ccccc3)sc2Cc2sc(Nc3ccccc3)nc2-c2ccc(OC)cc2)cc1
The TGI of the first is 10-fold lower: 5 µM for the first, 52 µM for the second.

First: COc1cc([C@@H]2c3cc4c(cc3[C@@H](Nc3ccc(Cl)cc3C(=O)c3ccccc3)[C@H]3COC(=O)[C@H]23)OCO4)cc(OC)c1OC
Second: COc1cc(C2c3cc4c(cc3C(=O)C3CCC(=O)N32)OCO4)cc(OC)c1O (stereo unspecified)
The TGI of the first is lower: 1.09 µM for the first, over 50 µM for the second.

Cc1cc(O)c(/C=N/C(=S)Nc2ccc(S(N)(=O)=O)cc2)c(=O)o1 and Cc1cc(NS(=O)(=O)c2ccc(N=[N+]([O-])c3ccc(S(=O)(=O)Nc4cc(C)on4)cc3)cc2)no1 cannot be ordered by TGI: over 100 µM for the first, over 100 µM for the second.

CCOC(=O)c1nc2ccc(C(F)(F)F)cc2nc1Nc1ccc(OC)cc1 and COc1ccc(-c2nc(-c3cnccn3)n(C3OC(CO)C(O)C3O)n2)cc1 (stereo unspecified) cannot be ordered by TGI: over 100 µM for the first, over 10 µM for the second.

First: Cc1ccc(S(=O)(=O)N2CCSCCSCCSCCN(S(=O)(=O)c3ccc(C)cc3)CC2)cc1
Second: Cc1ccc(S(=O)(=O)N2CCNCCN(S(=O)(=O)c3ccc(C)cc3)CCNCC2)cc1
The TGI of the first is higher: over 100 µM for the first, 25.4 µM for the second.

CC(=O)[C@H]1[C@H](O)C[C@@]2(C)[C@@H]3CCc4cc(O)c(OC5OC(CO)C(O)C(O)C5O)cc4C3(C)C(=O)C[C@]12C (stereo partly specified) and Cc1ccc(S(=O)(=O)N/N=C2/CCC3(O)CC2(C)CCC2[C@H]3CC2(C)C)cc1 (stereo partly specified) cannot be ordered by TGI: over 100 µM for the first, over 100 µM for the second.

CC(C)(O)c1cc2c(cc1C(C)(C)O)-c1ccccc1-2 and CC1=CCC(C(C)(C)NC(=O)c2ccccc2)C/C1=N/O (stereo unspecified) cannot be ordered by TGI: over 100 µM for the first, over 100 µM for the second.

First: CCCc1nc2c(n1CC)C(=O)c1ccccc1C2=O
Second: CC(Oc1ccc(Cl)cc1Cl)C(=O)NN1C(=O)CC(=O)N(c2ccccc2)C1=S (stereo unspecified)
The TGI of the first is higher: over 100 µM for the first, 5.73 µM for the second.

First: O=C(NCCN1CCCCC1)c1cccc(I)c1
Second: CC(=O)/C(=C\I)c1ccccc1
The TGI of the first is higher: over 100 µM for the first, 3.49 µM for the second.

COC(=O)[C@@](NC(=O)OCc1ccccc1)([C@H](C)O)C(F)(F)F and COC(=O)C(=O)C(C(=O)C(=O)Nc1ccc(C)cc1C)c1nc2ccc(Cl)cc2[nH]c1=O (stereo unspecified) cannot be ordered by TGI: over 100 µM for the first, over 100 µM for the second.

CO/C(=N\N=C\c1ccc(Cl)c(Cl)c1)c1ccncc1 and COC(=O)/C=C(\C)CCC1SC1(C)C (stereo unspecified) cannot be ordered by TGI: over 10 µM for the first, over 100 µM for the second.

For Cc1cn(C2CC(N=[N+]=[N-])C(COP(=O)(O)OCC3OC(n4cc(F)c(=O)[nH]c4=O)CC3O)O2)c(=O)[nH]c1=O (stereo unspecified), the TGI was over 100 µM.

What follows are molecules tested on OVCAR-3 ovarian (assay: NCI anticancer screen, dose series, 48 h).

O=C(NCCNCCNC(=O)c1cc(-c2ccccc2)nc2ccccc12)c1cc(-c2ccccc2)nc2ccccc12 showed a TGI of 5.73 µM.
